The values that follow come from ChEMBL document CHEMBL5154738, “Design, synthesis and structural-activity relationship studies of phanginin A derivatives for regulating SIK1-cAMP/CREB signaling to suppress hepatic gluconeogenesis” (Eur J Med Chem, 2022).

The structures appear in SMILES notation. The source made the active and inactive calls. The rule behind the calls is not given here.

Data set [1] can be described thus: Inhibition of gluconeogenesis in C57BL/6J mouse primary hepatocytes assessed as inhibition of glucagon-stimulated glucose production at 0.5 mM preincubated for 1.5 hrs followed by lactate and pyruvate addition and later stimulated with glucagon for 4 hrs. Format: functional. To be noted: Hepatocyte, 5.5 h.
The nature of data set [2]: Inhibition of gluconeogenesis in C57BL/6J mouse primary hepatocytes assessed as inhibition of glucagon-stimulated glucose production at 5 uM preincubated for 1.5 hrs followed by lactate and pyruvate addition and later stimulated with glucagon for 4 hrs. Format: functional. To be noted: Hepatocyte, time 5.5 hrs.
Data set [3] is described as follows: Inhibition of gluconeogenesis in C57BL/6J mouse primary hepatocytes assessed as inhibition of glucagon-stimulated glucose production at 2.5 uM preincubated for 1.5 hrs followed by lactate and pyruvate addition and later stimulated with glucagon for 4 hrs. Format: functional. As to conditions: Hepatocyte, time 5.5 hrs.
Data set [4] is described as follows: Cytotoxicity against C57BL/6J mouse primary hepatocytes assessed as cell viability at 20 uM incubated for 24 hrs by MTT assay relative to control. To be noted: read-out: Activity. Format: toxicity, cell-based, Hepatocyte.
Data set [5] deals with Mus musculus. In words: Anti-hyperglycemic activity in ob/ob mouse assessed as reduction in fasting blood glucose level at 100 mg/kg, po administered once daily and measured after 21 days relative to control. Format: functional. To be noted: 504 h, time 21 day.
In data set [6] the test system is Hepatocyte. In words: Inhibition of gluconeogenesis in C57BL/6J mouse primary hepatocytes assessed as inhibition of glucagon-stimulated glucose production preincubated for 1.5 hrs followed by lactate and pyruvate addition and later stimulated with glucagon for 4 hrs. Format: functional, cell-based. As to conditions: dose 2.5-10 µM, time 5.5 hrs, DDE = dose-dependent effect.

Data set [7] in a line: Inhibition of gluconeogenesis in C57BL/6J mouse primary hepatocytes assessed as inhibition of glucagon-stimulated glucose production at 10 uM preincubated for 1.5 hrs followed by lactate and pyruvate addition and later stimulated with glucagon for 4 hrs. Format: functional. To be noted: Hepatocyte, time 5.5 hrs.
Data set [8] can be described thus: Cytotoxicity against C57BL/6J mouse primary hepatocytes assessed as cell viability at 10 uM incubated for 24 hrs by MTT assay relative to control. Format: toxicity, cell-based, Hepatocyte. As to conditions: read-out: Activity. Background: Formazan colour is commonly taken as a measure of viable cells.
Data set [9] is described as follows: Cytotoxicity against C57BL/6J mouse primary hepatocytes assessed as cell viability at 50 uM incubated for 24 hrs by MTT assay relative to control. Format: toxicity, cell-based, Hepatocyte. To be noted: read-out: Activity.
Data set [10] can be described thus: Cytotoxicity against C57BL/6J mouse primary hepatocytes assessed as cell viability at 100 uM incubated for 24 hrs by MTT assay relative to control. Format: toxicity, cell-based, Hepatocyte. To be noted: read-out: Activity.
The nature of data set [11]: Cytotoxicity against C57BL/6J mouse primary hepatocytes assessed as cell viability at 200 uM incubated for 24 hrs by MTT assay relative to control. As to conditions: read-out: Activity. Format: toxicity, cell-based, Hepatocyte.
Data set [12] deals with Serine/threonine-protein kinase SIK1 (Mus musculus) (UniProt Q60670). In words: Activation of SIK1 in C57BL/6J mouse primary hepatocytes assessed as increase in SIK1 phosphorylation at Thr182 residue measured after 2 hrs by western blot analysis. Format: cell-based. To be noted: Primary hepatocyte, filed as activator, dose 2.5-10 µM, DDE = dose-dependent effect.
Data set [13] deals with Hepatocyte. In words: Inhibition of gluconeogenesis in C57BL/6J mouse primary hepatocytes assessed as inhibition of glucose production preincubated for 1.5 hrs followed by lactate and pyruvate addition. Format: functional, cell-based. To be noted: dose 2.5-10 µM, DDE = dose-dependent effect.
Data set [14] has as its target Serine/threonine-protein kinase SIK1 (Mus musculus) (UniProt Q60670). In words: Activation of SIK1 in C57BL/6J mouse primary hepatocytes assessed as decrease in glucagon-stimulated intracellular cAMP accumulation by ELISA. To be noted: Primary hepatocyte, filed as activator, dose 2.5-10 µM, DDE = dose-dependent effect. Format: cell-based. A general note: Cyclic AMP is a second messenger, typically raised through Gs and lowered through Gi signalling.

Data set [15] has the same target. In words: Activation of SIK1 in C57BL/6J mouse primary hepatocytes assessed as decrease in CREB phosphorylation at 2.5 to 10 uM incubated for 2 hrs by western blot analysis. Format: cell-based. To be noted: Primary hepatocyte, filed as activator, dose 2.5-10 µM, DDE = dose-dependent effect. For orientation: A western blot detects proteins with antibodies after separation by electrophoresis.

Data set [16] shares this target. In words: Activation of SIK1 in C57BL/6J mouse primary hepatocytes assessed as decrease in glucagon-stimulated CREB phosphorylation at 2.5 to 10 uM incubated for 2 hrs by western blot analysis. Format: cell-based. To be noted: Primary hepatocyte, filed as activator, dose 2.5-10 µM, DDE = dose-dependent effect.
In data set [17] the test system is Mus musculus. In words: Acute hypoglycemic activity in type 2 diabetic ob/ob mouse assessed as reduction in fasting blood glucose level at 100 mg/kg, po administered as single dose and measured for 10 hrs. Format: functional, organism-based.
Data set [18] relates to Mus musculus. In words: Anti-hyperglycemic activity in ob/ob mouse assessed as reduction in non-fasting blood glucose level at 100 mg/kg, po administered once daily and measured after 8 days relative to control. Format: functional. As to conditions: 192 h, time 8 day.
Data set [19] relates to Mus musculus. In words: Anti-hyperglycemic activity in ob/ob mouse assessed as reduction in fasting blood glucose level at 100 mg/kg, po administered once daily and measured after 4 days relative to control. As to conditions: 96 h, time 4 day. Format: functional.
Data set [20] deals with Mus musculus. In words: Anti-hyperglycemic activity in ob/ob mouse assessed as reduction in non-fasting blood glucose level at 100 mg/kg, po administered once daily and measured after 21 days relative to control. Format: functional. To be noted: 504 h, time 21 day.
Data set [21] concerns Mus musculus. In words: Anti-hyperlipidemic activity in ob/ob mouse assessed as reduction in serum triglyceride level at 100 mg/kg, po administered once daily for 21 days. Format: functional, organism-based. To be noted: time 21.0 day.
Data set [22] concerns Mus musculus. In words: Anti-hyperlipidemic activity in ob/ob mouse assessed as reduction in total cholesterol level in serum at 100 mg/kg, po administered once daily for 21 days. Format: functional, organism-based. To be noted: time 21.0 day.
Data set [23] concerns Mus musculus. In words: In vivo activation of SIK1 in ob/ob mouse assessed as increase in SIK1 phosphorylation at Thr182 residue in liver at 100 mg/kg, po administered once daily for 21 days by western blot analysis. Format: functional, organism-based. As to conditions: time 21.0 day.
Data set [24] relates to Mus musculus. In words: In vivo activation of SIK1 in ob/ob mouse assessed as decrease in CREB phosphorylation in liver at 100 mg/kg, po administered once daily for 21 days by western blot analysis. Format: functional, organism-based. As to conditions: time 21.0 day.

Serine/threonine-protein kinase SIK1 (Mus musculus), sequence (Q60670 whole entry): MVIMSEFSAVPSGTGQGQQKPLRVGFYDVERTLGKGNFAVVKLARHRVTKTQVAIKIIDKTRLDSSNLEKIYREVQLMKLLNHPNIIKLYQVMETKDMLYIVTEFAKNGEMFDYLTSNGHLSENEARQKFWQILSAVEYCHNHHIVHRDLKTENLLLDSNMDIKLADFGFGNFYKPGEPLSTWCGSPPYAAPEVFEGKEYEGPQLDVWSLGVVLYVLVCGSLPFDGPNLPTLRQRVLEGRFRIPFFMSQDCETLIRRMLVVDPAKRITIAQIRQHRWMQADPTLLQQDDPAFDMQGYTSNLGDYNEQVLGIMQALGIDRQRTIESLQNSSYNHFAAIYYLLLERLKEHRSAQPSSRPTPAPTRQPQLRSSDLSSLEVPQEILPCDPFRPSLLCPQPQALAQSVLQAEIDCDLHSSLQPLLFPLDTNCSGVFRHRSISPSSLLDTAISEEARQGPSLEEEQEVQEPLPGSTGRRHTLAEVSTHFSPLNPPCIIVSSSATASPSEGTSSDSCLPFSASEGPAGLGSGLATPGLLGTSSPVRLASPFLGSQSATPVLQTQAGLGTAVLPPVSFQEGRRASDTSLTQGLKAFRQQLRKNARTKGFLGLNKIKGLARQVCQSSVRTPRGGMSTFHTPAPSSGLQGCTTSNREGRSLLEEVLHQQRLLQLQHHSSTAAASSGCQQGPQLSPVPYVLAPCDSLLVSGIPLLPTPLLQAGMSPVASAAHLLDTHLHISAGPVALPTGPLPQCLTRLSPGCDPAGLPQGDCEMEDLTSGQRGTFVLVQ

Take `CN(C)C(=N)NC(=N)N` [METFORMIN]: the inhibition at 500 µM in data set [1] was 51.5%.

In the case of `COC(=O)[C@@]12CCCC3([C@H](OCCO)OC1)[C@H]2CC[C@H]1[C@@H](C)c2ccoc2C[C@@H]13`, the inhibition at 5 µM in data set [2] was determined as 79.6%. Moreover, in [3], the inhibition at 2.5 µM was 53.4%. In data set [4], the viability at 24 h, 20 µM was 86.1%. The inhibition in vivo at 100 mg/kg amounted to 41.2% with Mus musculus [5], 41.1% with Mus musculus [18], 32.3% with Mus musculus [19] and 37.6% with Mus musculus [20]. Moreover, the inhibition result with Hepatocyte [6] and in the data set on Hepatocyte [13] was “Dde” each time. Further, the inhibition at 10 µM in data set [7] was 91.4%. In addition, the viability at 24 h, 10 µM in data set [8] is 98.4%. For the same compound, the viability at 24 h, 50 µM in data set [9] stood at 90.1%. In addition, in data set [10], the viability at 24 h, 100 µM came to 11.1%. Besides, the viability at 24 h, 200 µM in data set [11] worked out at 9.2%. Also, the Activity entry in data set [12], in data set [14], in data set [15] and in data set [16] was “Dde” throughout. The result in the data set with Mus musculus [17], in the data set on Mus musculus [21], with Mus musculus [22], in the data set with Mus musculus [23] and in the data set on Mus musculus [24] was Active.

As to `COC(=O)[C@@]12CCCC3([C@H](O)OC1)[C@H]2CC[C@H]1[C@@H](C)c2ccoc2C[C@@H]13`, in [2], the inhibition at 5 µM is 49.7%. The inhibition at 2.5 µM in data set [3] came out at 24.9%. In addition, the viability at 24 h, 20 µM in data set [4] came out at 84.6%. Further, the inhibition in vivo at 100 mg/kg stood at 33.3% with Mus musculus [5], 28.2% with Mus musculus [18], 24% with Mus musculus [19] and 23.8% in the data set with Mus musculus [20]. In addition, the inhibition at 10 µM in data set [7] stood at 70.5%. The viability at 24 h, 10 µM in [8] came to 99%. The viability at 24 h, 50 µM in data set [9] stood at 29.4%. Further, the viability at 24 h, 100 µM in data set [10] amounted to 7.5%. Besides, the viability at 24 h, 200 µM in data set [11] came out at 7.2%. For the same compound, the result in the data set on Mus musculus [17], in the data set with Mus musculus [23] and in the data set on Mus musculus [24] was Active.

Broadly, the inhibition is the share of the control response that was lost under treatment. Broadly, the inhibition in vivo is how much of the control response was suppressed.
